Reference: US20140322315A1, “CYSTEAMINE AND/OR CYSTAMINE FOR TREATING ISCHEMIC INJURY” (The Regents of the University of California, priority 2011, published 2014)

Columns and labels:
[1] = test system: adiponectin; assay: Adiponectin secretion by adipose tissue explants / isolated fat cells cultured with cysteamine; format: cell-based; details: 90 μM cysteamine, 45 min; p=0.002
Description: Fat biopsy adipose tissue (AT) samples were collagenase digested×1 hr at 37° C. in a rotating waterbath. Digested AT was then filtered through 425 μm nylon mesh to separate fat cells. Isolated fat cells (FC) were twice washed in physiologic salts buffer (Phillips 2008), filtered and twice washed again. FC were spun at 50×g to concentrate. 1 ml FC were resuspended in 9 ml of defined culture media (Phillips 2008) and FC were allowed to recover×10 hrs overnight at 37° C.
Adipocytes were isolated and allowed to recover×overnight then cultured with or without 90 μM cysteamine and media collected at the following time points (45, 90, 180, 24 hr). Western Blot analysis of 20 μl of media was performed with non-reducing 5× Loading buffer. […] The blot was washed and incubated with a secondary antibody (Goat anti-mouse IR 800) and densitometry measured on a LICOR densitometer. […]
To determine the time course of cysteamine effects on adiponectin, media was changed and FC were resuspended in 9 ml of defined media ±90 μM cysteamine. FC content and secretion of adiponectin into the media was assessed in duplicate culture at 0, 45, 90, 180 minutes and 24 hr. […] Signal detection and quantitative analysis was completed using the LiCOR Odyssey Machine (LiCOR, Lincoln, Nebr.). Multimeric content of cellular adiponectin was determined by dividing the AU for the multimer by the total AU per sample. […]

[2] = target: T1, adiponectin multimers (Homo sapiens, UniProt Q15848); assay: Gastric Banding (GB) serum incubated with cysteamine, adiponectin multimers by western blot; format: biochemical; details: 37° C. + 45 μM cysteamine, 1 hr
T1 construct: from tissue; host or cells: human serum (pretreatment NAFLD subjects; adults without NAFLD)
T1 sequence (Q15848 19-244): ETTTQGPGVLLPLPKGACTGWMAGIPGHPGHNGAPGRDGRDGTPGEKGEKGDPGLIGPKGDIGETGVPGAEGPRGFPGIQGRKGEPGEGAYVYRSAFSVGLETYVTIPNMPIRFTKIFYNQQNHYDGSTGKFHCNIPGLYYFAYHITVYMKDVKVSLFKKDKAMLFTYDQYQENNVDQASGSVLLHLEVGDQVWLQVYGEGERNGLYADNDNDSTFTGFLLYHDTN
Description: In another experiment, 25 μl total sample volume (5 μl diluted serum+15 μl water+5 μl 5×LB) was incubated with or without cysteamine at 37° C.×1 hr. A control was prepared without cysteamine and incubated at room temperature for 1 hour on the bench. The preparations were then run on 2×15-well 1.5 mm 3-8% Tris-acetate gels. Primary antibody—mouse anti-adiponectin 1:500, overnight at 4° C. and secondary antibody—goat anti-mouse IR800 1:20,000.
To determine threshold dose of cysteamine on reduction of serum adiponectin multimers, serum was collected and incubated with various concentrations of cysteamine. Six microliters of diluted GB serum was incubated with 24 μl water and various concentrations of cysteamine. Samples, were incubate in a tissue culture incubator for 1 hr at 37° C. with a control tube having no cysteamine addition. To each tube was then added 5 μl of 5× non-reducing loading buffer. The samples were vortexed and loaded on a 3-8% tris-Acetate gel and run for 75 min at 125 V constant current. The gel was transferred and blocked. The blot was then incubated overnight with anti-adiponectin antibody 1:500 in 3% BSA/TBS. The blot was washed and incubated with a secondary anti-mouse antibody for 1 hour. Densitometry was performed on a LICOR densitometer.

[3] = target: T1, adiponectin multimers; assay: Dose response profile: NAFLD serum incubated with varying cysteamine concentrations, adiponectin multimers; format: biochemical; details: 1 hour at 37° C.
Description: Total and multimeric adiponectin levels were measured in serum taken from: (1) subject with NAFLD collected at 0 and 24 wks of cysteamine therapy and again 16 wks after stopping therapy (i.e., 40 weeks); (2) pretreated 0-week subjects with NAFLD and adults without NAFLD at room temperature and at 37° C. and also after incubation with cysteamine 90 μM for 1 hour at 37° C.; and (3) pretreated 0-week subjects with NAFLD before and after incubation with cysteamine at varying concentrations (15, 30, 45, 60, 90, 120 μM) for 1 hour at 37° C. to establish dose-response profile.
Sodium dodecyl sulfate polyacrylamide gel electrophoresis (SDS-PAGE) was performed according to standard Laemmli's method. Sample buffer for non-reducing, non-heat denaturing conditions contained 3% SDS; 50 mmol/1 Tris-HCL, pH 6.8 and 20% glycerol. Proteins were separated using 3-8% Tris-Acetate Gels (Invitrogen, Carlsbad Calif.) with Tris-Acetate running buffer per manufacturer instructions. For immunoblotting, proteins were transferred to nitrocellulose membranes. Membranes were washed with Tween (Tris-buffered Saline, 0.1% […]) and incubated with monoclonal antibody (1:500 BD Transduction Laboratories, San Diego, Calif.). After washing with Tris-buffered saline with 0.1% Tween (4×5 min) membranes were incubated with L-COR secondary antibodies (LI-COR Biotechnology, Lincoln Nebr.) at 1:20,000. Adiponectin multimers were detected and quantified using the LICOR imager and software analysis program. Relative distribution of adiponectin multimers was determined by dividing band density by total density (cellular adiponectin) or by total adiponectin as determined by ELISA (Millipore, Billerica, Mass.). The percentage of adionectin multimer was then multiplied by the total adiponectin level to calculate absolute oligomer value.

[4] = test system: circulating leukocytes; details: Dohil et al., J. Pediatr 2006; cited from earlier work

HMW adiponectin change ([2]; p=0.009): significantly decrease
LMW adiponectin change ([2]; p=0.05): significantly increase
HMW level vs baseline ([3]; 120 μM cysteamine): reductions
MMW level vs baseline ([3]; 120 μM cysteamine): reductions
greatest percent increase in LMW ([3]; 120 μM cysteamine): 77%
MMW levels vs baseline ([3]; all cysteamine concentrations (15-120 μM)): lower than baseline
mean LMW level increase above baseline ([3]; all cysteamine concentrations used (15-120 μM)): > 60%
HMW level increase above baseline ([3]; cysteamine 15, 30, 45, and 60 μM): about 10%
Compound: NCCS [cysteamine, Cysteamine]
total adiponectin, treated vs untreated [1]: Significant difference
intracellular cystine levels in circulating leukocytes [4]: lowering
